A short description of series [1]: Oral gavage pharmacokinetics (suspension) in albino wistar rats. Conditions: rat, in vivo, oral gavage 40 mg/kg·bw. The text has this: FIG. 1 illustrates the area under the curve in albino wistar rats after oral administration of NRC-AN-019 “as is” and different solid dispersions in accordance with the invention.
The study discloses better bioavailability characteristics of NRC-AN-019 in the formulation of the present invention than NRC-AN-019 as such. Thus, the optimum bioavailability can be achieved for the therapeutic effectiveness of NRC-AN-019. The maximum concentration and AUC of the formulation of the present invention are substantially higher than that of NRC-AN-019 “as is” due to better absorption characteristics of the solid dispersion of NRC-AN-019 in amorphous or, partially amorphous or, crystalline form. The details of the process of the invention are provided in the examples given below which is provided by way of illustration only and therefore should not be construed to limit the scope of the invention. The preparation of the present invention that can be administered by the oral route is carried out according to the following process.
NRC-AN-019 active pharmaceutical ingredient (API) and the compositions of the present invention were administered through oral gavage at 40 mg/kg·bw in the form of a suspension in albino wistar rats. […] The Cmax and AUC0-∞ for the compositions of the present invention vary between 900 ng/mL to 2000 ng/mL and 7500 ng·hr/mL to 16000 ng·hr/mL respectively.

A short description of series [2]: Solubility of NRC-AN-019 (aqueous at physiological pH; organic solvents). The class given is physicochemical. The text has this:
Its molecular formula is C25H17F6N5O and its relative molecular mass is 517.44.
It is soluble in dimethylformamide, dimethylacetamide and dimethyl sulfoxide. NRC-AN-019 presents specific difficulties in relation to solubility and its formulation development. Oral absorption of such insoluble drugs is the key point to be considered in solving the problem of low bioavailability.

Structures are written as SMILES. In brackets after ≈: the same amount, converted by molar mass.

As for `Cc1ccc(NC(=O)c2cc(C(F)(F)F)cc(C(F)(F)F)c2)cc1Nc1nccc(-c2cccnc2)n1` [NRC-AN-019, (3,5-Bis trifluoromethyl)-N-[4-methyl-3-(4-pyridin-3-yl-pyrimidin-2-yl-amino)phenyl]benzamide], the Cmax (as a rule, the maximum level reached in the sampled fluid or tissue) in series [1] was 33.7 ng/mL. Also, in series [1] (read-out: average AUC0-∞), the AUC(0-inf) is 453 ng·h/mL. Further, the solubility (as a rule, how much of the substance goes into solution per volume) is 6.6 µg/mL (≈ 12.8 µM) in series [2] (aqueous medium at pH 1.2 (buffer not named), pH 1.2, simulated gastric fluid) and 0.2 µg/mL (≈ 0.387 µM) in series [2] (aqueous medium at pH 2.0 (buffer not named), pH 2, simulated gastric fluid). Further, in series [2] (dimethylformamide, dimethylacetamide and dimethyl sulfoxide), the “solubility in organic solvents” value was “soluble”. In addition, the aqueous solubility entry in series [2] (pH 3.0, 4.0, 5.0, 6.0, 6.8, 7.0, 7.5, 8.0 and water) is “below detection limit”. The solubility in water result in series [2] (water) was “practically insoluble”.

The values above are taken from patent US10383872B2, “Pharmaceutical compositions comprising phenylaminopyrimidine derivative” (priority 2015, dated 2019).
